For experiment [1], the target named is T1, NLRP3 (Homo sapiens, UniProt Q96P20). In words: Human whole blood IL1β release assay (LPS + nigericin, AlphaLisa IL-1β; HWB IC50). The format is cell-based. Also on record: Human whole blood in Li-heparin tubes was obtained from healthy donors from a volunteer donor panel; from tissue; host or cells: human whole blood from healthy donors. To be noted: IL-1β release. The method, boiled down:
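IL-1β in plasma supernatant quantified by AlphaLisa after nigericin (10 μM final, 1 h, 37 °C) triggering of human whole blood that had been preincubated 3 h with LPS (1 μg/ml) plus compound (half-log, 8 points, from 10 μM). IC50 by variable-slope four-parameter regression.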
A general note: Alpha assays give light when donor and acceptor beads are brought close together.

In experiment [2] the target is T1, NLRP3. Nature of the experiment: THP-1 cells pyroptosis assay (LPS + nigericin, resazurin readout; THP IC50). The format is cell-based. Also on record: Seed THP-1 cells (25,000 cells/well) containing 1.0 μg/ml LPS in 40 μl of RPMI medium; host or cells: THP-1 cells. The gist of the method:
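IC50 from 4-parameter fit of resazurin fluorescence (100 μM, 1-2 hrs), reflecting surviving cells after pyroptosis. LPS-primed (1 μg/ml) THP-1 cells in FBS-free RPMI got compound for 3 hrs at 37° C (top 10 μM, half-log, 8 points), then nigericin 5 μM for 1 hr.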

pIC50: −log10 of the molar value. Counter-ions that a name gives are not always drawn. Bounds are passed on as bounds.

For orientation: pIC50 means the negative decadic logarithm of the IC50, by convention in mol/L.

T1 sequence (Q96P20 whole entry): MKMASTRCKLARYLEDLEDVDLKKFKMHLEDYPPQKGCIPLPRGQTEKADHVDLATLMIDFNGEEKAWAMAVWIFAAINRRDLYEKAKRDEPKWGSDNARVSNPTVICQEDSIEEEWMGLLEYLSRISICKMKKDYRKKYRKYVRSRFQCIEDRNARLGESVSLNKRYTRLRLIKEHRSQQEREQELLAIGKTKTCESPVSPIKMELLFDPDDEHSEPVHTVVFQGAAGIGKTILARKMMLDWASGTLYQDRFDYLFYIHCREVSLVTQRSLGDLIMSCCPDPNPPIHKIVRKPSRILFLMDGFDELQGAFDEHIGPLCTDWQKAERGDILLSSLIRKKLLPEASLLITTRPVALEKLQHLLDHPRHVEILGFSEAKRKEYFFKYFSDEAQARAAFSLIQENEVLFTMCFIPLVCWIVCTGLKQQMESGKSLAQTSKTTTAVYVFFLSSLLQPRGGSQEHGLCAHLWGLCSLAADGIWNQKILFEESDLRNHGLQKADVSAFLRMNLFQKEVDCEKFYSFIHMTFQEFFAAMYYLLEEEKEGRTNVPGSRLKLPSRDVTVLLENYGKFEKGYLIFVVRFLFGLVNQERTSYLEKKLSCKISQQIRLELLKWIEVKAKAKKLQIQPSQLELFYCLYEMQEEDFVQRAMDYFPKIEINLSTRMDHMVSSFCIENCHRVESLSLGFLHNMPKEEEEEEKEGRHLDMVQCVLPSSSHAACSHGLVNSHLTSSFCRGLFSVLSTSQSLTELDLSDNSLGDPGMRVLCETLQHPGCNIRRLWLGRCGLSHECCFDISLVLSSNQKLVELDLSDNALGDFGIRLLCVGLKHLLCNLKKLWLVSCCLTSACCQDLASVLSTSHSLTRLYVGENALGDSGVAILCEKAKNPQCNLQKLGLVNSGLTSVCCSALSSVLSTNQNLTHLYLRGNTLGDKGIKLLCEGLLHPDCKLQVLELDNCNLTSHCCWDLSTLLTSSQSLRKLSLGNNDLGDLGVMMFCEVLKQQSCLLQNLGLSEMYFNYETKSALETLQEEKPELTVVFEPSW

For `COc1cc(-c2ccc3c(c2NC(=O)NS(=O)(=O)c2ccn(C(C)(C)C#N)n2)CCC3)ccn1` [Example 201, 1-(2-Cyanopropan-2-yl)-N-((5-(2-methoxypyridin-4-yl)-2,3-dihydro-1H-inden-4-yl)carbamoyl)-1H-pyrazole-3-sulfonamide, sodium salt], the pIC50 at NLRP3 [1] and at NLRP3 [2] was at least 6.30 each time.

As to `CN(C)CC(C)(C)n1ccc(S(=O)(=O)NC(=O)Nc2c(-c3ccnc(C#N)c3)ccc3c2CCC3)n1` [Example 202, N-((5-(2-Cyanopyridin-4-yl)-2,3-dihydro-1H-inden-4-yl)carbamoyl)-1-(1-(dimethylamino)-2-methylpropan-2-yl)-1H-pyrazole-3-sulfonamide], the pIC50 at NLRP3 [1] and at NLRP3 [2] was at least 6.30 throughout.

For the molecule `CN(C)CC(C)(C)n1ccc(S(=O)(=O)NC(=O)Nc2c(-c3cccnc3)ccc3c2CCC3)n1` [Example 203, 1-(1-(Dimethylamino)-2-methylpropan-2-yl)-N-((5-(pyridin-3-yl)-2,3-dihydro-1H-inden-4-yl)carbamoyl)-1H-pyrazole-3-sulfonamide], the negative logarithm of the IC50 (pIC50) on NLRP3 [1] and on NLRP3 [2] was at least 6.30 throughout.

Take `CC(C)n1ccc(S(=O)(=O)NC(=O)Nc2c(-c3cccnc3)cc(F)c3c2CCC3)n1` [Example 206, N-((7-Fluoro-5-(pyridin-3-yl)-2,3-dihydro-1H-inden-4-yl)carbamoyl)-1-isopropyl-1H-pyrazole-3-sulfonamide]: the results for the pIC50 at NLRP3 [1] and on NLRP3 [2] were at least 5.30 and at least 6.30, respectively.

In the case of `CC(C)n1ccc(S(=O)(=O)NC(=O)Nc2c(-c3cccnc3)ccc3ccccc23)n1` [Example 207, 1-Isopropyl-N-((2-(pyridin-3-yl)naphthalen-1-yl)carbamoyl)-1H-pyrazole-3-sulfonamide], the values for the pIC50 on NLRP3 [1] and on NLRP3 [2] were at least 5.30 and at least 6.00, respectively.

Regarding `COc1cc(-c2ccc3ccccc3c2NC(=O)NS(=O)(=O)c2ccn(C(C)C)n2)ccn1` [Example 209, 1-Isopropyl-N-((2-(2-methoxypyridin-4-yl)naphthalen-1-yl)carbamoyl)-1H-pyrazole-3-sulfonamide], the pIC50 on NLRP3 [1] was at least 5.30; on NLRP3 [2], at least 6.30.

Turning to `COc1cc(-c2cc(F)cc(C3CC3)c2NC(=O)NS(=O)(=O)c2ccn(C(C)C)n2)ccn1` [Example 210, N-((2-Cyclopropyl-4-fluoro-6-(2-methoxypyridin-4-yl)phenyl)carbamoyl)-1-isopropyl-1H-pyrazole-3-sulfonamide], the pIC50 at NLRP3 [1] is at least 5.30; on NLRP3 [2], at least 6.30.

On to `COc1cc(-c2cc(F)cc(C3CCCC3)c2NC(=O)NS(=O)(=O)c2ccn(C(C)C)n2)ccn1` [Example 211, N-((2-Cyclopentyl-4-fluoro-6-(2-methoxypyridin-4-yl)phenyl)carbamoyl)-1-isopropyl-1H-pyrazole-3-sulfonamide], for which the negative logarithm of the IC50 (pIC50) on NLRP3 [1] was at least 5.30; on NLRP3 [2], at least 6.30.

`COc1cc(-c2ccc3c(c2NC(=O)NS(=O)(=O)c2ccn(C(C)C)n2)CCCC3)ccn1` [Example 213, 1-Isopropyl-N-((2-(2-methoxypyridin-4-yl)-5,6,7,8-tetrahydronaphthalen-1-yl)carbamoyl)-1H-pyrazole-3-sulfonamide]: the negative logarithm of the IC50 (pIC50) was at least 5.30 on NLRP3 [1] and at least 6.30 on NLRP3 [2].

As to `CCOc1cc(-c2ccc3c(c2NC(=O)NS(=O)(=O)c2ccn(C(C)C)n2)CCC3)ccn1` [Example 214, N-((5-(2-Ethoxypyridin-4-yl)-2,3-dihydro-1H-inden-4-yl)carbamoyl)-1-isopropyl-1H-pyrazole-3-sulfonamide], the negative logarithm of the IC50 (pIC50) on NLRP3 [1] is at least 6.00; at NLRP3 [2] it was at least 6.30.

For the molecule `CC(C)n1ccc(S(=O)(=O)NC(=O)Nc2c(-c3ccnc(C#N)c3)ccc3c2CCC3)n1` [Example 215, N-((5-(2-Cyanopyridin-4-yl)-2,3-dihydro-1H-inden-4-yl)carbamoyl)-1-isopropyl-1H-pyrazole-3-sulfonamide], the pIC50 at NLRP3 [1] and on NLRP3 [2] was at least 6.30 each time.

As for `CC(C)Oc1cc(-c2ccc3c(c2NC(=O)NS(=O)(=O)c2ccn(C(C)C)n2)CCC3)ccn1` [Example 216, N-((5-(2-Isopropoxypyridin-4-yl)-2,3-dihydro-1H-inden-4-yl)carbamoyl)-1-isopropyl-1H-pyrazole-3-sulfonamide], the pIC50 at NLRP3 [1] is at least 5.30; on NLRP3 [2], at least 6.30.

For `CC(C)n1ccc(S(=O)(=O)NC(=O)Nc2c(-c3cc[nH]c(=O)c3)ccc3c2CCC3)n1` [Example 218, 1-Isopropyl-N-((5-(2-oxo-1,2-dihydropyridin-4-yl)-2,3-dihydro-1H-inden-4-yl)carbamoyl)-1H-pyrazole-3-sulfonamide], the pIC50 was at least 6.00 on NLRP3 [1] and at least 6.30 on NLRP3 [2].

`COc1cc(-c2ccc3c(c2NC(=O)NS(=O)(=O)c2ccn(C(C)(C)CN4CCC4)n2)CCC3)ccn1` [Example 219, 1-(1-(Azetidin-1-yl)-2-methylpropan-2-yl)-N-((5-(2-methoxypyridin-4-yl)-2,3-dihydro-1H-inden-4-yl)carbamoyl)-1H-pyrazole-3-sulfonamide]: the negative logarithm of the IC50 (pIC50) at NLRP3 [1] and at NLRP3 [2] was at least 6.30 each time.

`N#Cc1cc(-c2ccc3c(c2NC(=O)NS(=O)(=O)c2ccn(C4CC4)n2)CCC3)ccn1` [Example 222, N-((5-(2-Cyanopyridin-4-yl)-2,3-dihydro-1H-inden-4-yl)carbamoyl)-1-cyclopropyl-1H-pyrazole-3-sulfonamide, sodium salt]: the negative logarithm of the IC50 (pIC50) on NLRP3 [1] and on NLRP3 [2] was at least 6.30 throughout.

Turning to `CC(C)n1ccc(S(=O)(=O)NC(=O)Nc2c(-c3ccnc(C#N)c3)cc(Cl)c3c2CCC3)n1` [Example 225, N-((7-Chloro-5-(2-cyanopyridin-4-yl)-2,3-dihydro-1H-inden-4-yl)carbamoyl)-1-isopropyl-1H-pyrazole-3-sulfonamide, sodium salt], the negative logarithm of the IC50 (pIC50) at NLRP3 [1] is at least 5.30; at NLRP3 [2] it was at least 6.30.

On to `COc1cc(-c2cc(Cl)c3c(c2NC(=O)NS(=O)(=O)c2ccn(C(C)C)n2)CCC3)ccn1` [Example 226, N-((7-Chloro-5-(2-methoxypyridin-4-yl)2,3-dihydro-1H-inden-4-yl)carbamoyl)-1-isopropyl-1H-pyrazole-3-sulfonamide, sodium salt], for which the pIC50 was at least 6.00 on NLRP3 [1] and at least 6.30 at NLRP3 [2].

For the molecule `N#Cc1cc(-c2ccc3c(c2NC(=O)NS(=O)(=O)c2ccn(C4CCC4)n2)CCC3)ccn1` [Example 227, N-((5-(2-Cyanopyridin-4-yl)-2,3-dihydro-1H-inden-4-yl)carbamoyl)-1-cyclobutyl-1H-pyrazole-3-sulfonamide], the negative-log IC50 (pIC50) on NLRP3 [1] and at NLRP3 [2] was at least 6.30 throughout.

Regarding `CC(C)n1cnc(S(=O)(=O)NC(=O)Nc2c(-c3ccnc(C#N)c3)ccc3c2CCC3)n1` [Example 228, N-((5-(2-Cyanopyridin-4-yl)-2,3-dihydro-1H-inden-4-yl)carbamoyl)-1-isopropyl-1H-1,2,4-triazole-3-sulfonamide, sodium salt], the negative-log IC50 (pIC50) at NLRP3 [1] and at NLRP3 [2] was at least 6.30 each time.

On to `CC(C)n1cnc(S(=O)(=O)NC(=O)Nc2c(-c3ccnc(C#N)c3)ccc3c2CCC3)c1` [Example 229, N-((5-(2-Cyanopyridin-4-yl)-2,3-dihydro-1H-inden-4-yl)carbamoyl)-1-isopropyl-1H-imidazole-4-sulfonamide], for which the pIC50 on NLRP3 [1] and at NLRP3 [2] was at least 6.30 each time.

As to `N#Cc1cc(-c2ccc3c(c2NC(=O)NS(=O)(=O)c2cnn(CC(F)F)c2)CCC3)ccn1` [Example 231, N-((5-(2-Cyanopyridin-4-yl)-2,3-dihydro-1H-inden-4-yl)carbamoyl)-1-(2,2-difluoroethyl)-1H-pyrazole-4-sulfonamide, sodium salt], the pIC50 on NLRP3 [1] and at NLRP3 [2] was at least 6.30 each time.

As to `COc1cc(-c2ccc3c(c2NC(=O)NS(=O)(=O)c2ncn(C(C)C)n2)CCC3)ccn1` [Example 232, 1-Isopropyl-N-((5-(2-methoxypyridin-4-yl)-2,3-dihydro-1H-inden-4-yl)carbamoyl)-1H-1,2,4-triazole-3-sulfonamide, sodium salt], the pIC50 on NLRP3 [1] was at least 6.00; on NLRP3 [2] it was at least 6.30.

As to `COc1cc(-c2ccc3c(c2NC(=O)NS(=O)(=O)c2cn(C(C)C)cn2)CCC3)ccn1` [Example 233, 1-Isopropyl-N-((5-(2-methoxypyridin-4-yl)-2,3-dihydro-1H-inden-4-yl)carbamoyl)-1H-imidazole-4-sulfonamide], the negative logarithm of the IC50 (pIC50) on NLRP3 [1] was at least 6.00; on NLRP3 [2] it was at least 6.30.

Regarding `COc1cc(-c2ccc3c(c2NC(=O)NS(=O)(=O)c2cn(C(C)C)nn2)CCC3)ccn1` [Example 234, 1-Isopropyl-N-((5-(2-methoxypyridin-4-yl)-2,3-dihydro-1H-inden-4-yl)carbamoyl)-1H-1,2,3-triazole-4-sulfonamide, sodium salt], the pIC50 at NLRP3 [1] is at least 6.00; at NLRP3 [2] it was at least 6.30.

On to `COc1cc(-c2ccc3c(c2NC(=O)NS(=O)(=O)c2cnn(CC(F)F)c2)CCC3)ccn1` [Example 235, 1-(2,2-Difluoroethyl)-N-((5-(2-methoxypyridin-4-yl)-2,3-dihydro-1H-inden-4-yl)carbamoyl)-1H-pyrazole-4-sulfonamide, sodium salt], for which the negative logarithm of the IC50 (pIC50) at NLRP3 [1] and on NLRP3 [2] was at least 6.30 in each case.

For the origin of these results see patent US20200361895A1, “NOVEL SULFONAMIDE CARBOXAMIDE COMPOUNDS” (Inflazome Limited, priority 2017, published 2020).
